{"source": "patent US4091006A", "about": "“Esters of 3-hydroxyindone compounds” (priority 1975, dated 1978)", "key": {"[1]": {"system": "Mite Adults", "assay": "whole plant or invertebrate", "procedure": "Adults and nymphal stages of the two-spotted mite (tetranychus urticae (Koch)), reared on Tendergreen bean plants at 80±5° F. and 50±5 percent relative humidity, were the test organisms. Infested leaves from a stock culture were placed on the primary leaves of two bean plants 6 to 8 inches in height, growing in a 21/2 inch clay pot. 150-200 Mites, a sufficient number for testing, transferred from the excised leaves to the fresh plants in a period of 24 hours. Following the 24 hour transfer period, the excised leaves were removed from the infested plants. The test compounds were formulated by diluting the stock suspension with water to provide suspensions containing the desired amount of test compound per million parts of final formulation. The potted plants (one pot per compound) were placed on a revolving turntable and sprayed with 100-110 milliliters of test compound formulation by use of a DeVilbis spray gun set at 40 psi. air pressure. This application, which lasted 30 seconds, was sufficient to wet the plants to run-off. As a control, 100-110 milliliters of a water solution containing acetone and emulsifier in the same concentrations as the test compound formulation, but containing no test compound, were also sprayed on infested plants. The sprayed plants were held at 80±5° F. and 50±5 percent relative humidity for 4 days, after which, a mortality count of motile forms was made. Microscopic examination for motile forms was made on the leaves of the test plants. Any individual which was capable of locomotion upon prodding was considered living.\n(§1) Side by side comparison tests were conducted to determine the effectiveness of selected enol ester compounds relative to (bis(p-chlorophenyl)trichlorethanol) a miticide sold under the trademark Kelthane and ovex (p-chlorophenyl-p-chlorobenzene sulfonate) two widely used commercial miticides."}, "[2]": {"system": "Bean", "assay": "Phytotoxicity, bean", "settings": "2500 ppm, 10 days", "method": "(§5) Experiments were also conducted to determine the phytotoxicity of representative enol ester compositions with respect to healthy fresh plants. […] The test plants were sprayed in accordance with the procedure described above for the Mite Foliage Spray Test so as to deliver approximately 100 milliliters of test solution to the leaves of each plant tested. The sprayed plants and controls were set aside for approximately 1 hour to allow the solutions to dry and were then placed in the greenhouse. After 10 days the plants were visually inspected to determine the extent of foliage injury. A rating of 1 indicates no perceptible injury; 5 indicates the plant was dead and ratings of 2, 3 and 4 indicate intermediate degrees of injury based upon the number and extent to which leaves were injured."}, "[3]": {"system": "Tomato", "assay": "Phytotoxicity, tomato", "settings": "2500 ppm, 10 days", "method": "as §5"}, "[4]": {"system": "Perennial rye grass, crabgrass, red root pigweed, mustard", "assay": "Preliminary Herbicide Seed Germination Test", "settings": "rating/maximum 40: 100 and 1000 ppm, four species, each rated 1 (no injury) to 5 (no seedlings emerged), 10-12 days"}, "[5]": {"system": "Corn", "assay": "Phytotoxicity, corn", "settings": "2500 ppm, 10 days", "method": "as §5"}, "[6]": {"system": "eggs of the two-spotted mite", "assay": "Fumigant toxicity, Method 1 (deposit in pie plate)", "assay_type": "in vivo", "settings": "deposit approx. 160 μg per square cm, 4 days", "procedure": "(§2) Two methods were used to evaluate fumigant properties:\nMethod 1: Fifty mg. of each compound were dissolved in 5 ml. of acetone and poured into a 20 cm. (bottom diameter) Pyrex No. 210 pie plate. The acetone was allowed to evaporate leaving a deposit of approximately 160 μg. per square cm. The plate was then placed in the bottom of a 50 pound metal lard container (about 30 cm. in diameter and 34 cm. high). Two excised bean plants, held in a 250 ml. Erlenmeyer flask containing 100 ml. of tap water and infested with eggs of the two-spotted mite, were placed in the center of the pie plate. The container was held in the insectary (temperature 80±5° F., 50±5% R. H.) for four days before mortality determinations were made."}, "[7]": {"system": "two-spotted mite", "assay": "Small scale field tests, mite control on Tendergreen bean plants", "assay_type": "in vivo, Tetranychus urticae (Koch)", "settings": "for Average mite control rating, 3rd Reading: 21 days", "procedure": "Selected enol ester compositions were evaluated in small scale field tests to determine whether the excellent miticidal properties observed in greenhouse testing would be obtained under actual conditions of field use.\nIn Test I 500 ppm aqueous dispersions were prepared as described above. In tests II and III various dilutions of the test compounds ranging from 125 ppm to 1000 ppm were prepared and used. In each case the test dispersions were applied to a minimum of two replicate test plots measuring five feet in length and containing healthy young Tendergreen bean plants which had previously been infested with two-spotted mite (Tetranychus urticae (Koch)). Dispersions of the test compounds at each concentration level were applied to individual replicate plots using 1/2 gallon garden sprayers equipped with spray nozzles to apply approximately 250 ml. of test solution to each replicate. The effectiveness of the treatment was determined at intervals following application, by microscopic examination of five leaves selected at random from each replicate plot. The degree of effectiveness for each leaf was rated on a scale of from 1 to 5 with 1 indicating no control in reference to a standard sprayed with a mixture of solution less test compound and 5 indicating complete control. The results obtained from inspection of sample leaves were then averaged to give a numerical indication of the degree of control for each compound tested at the concentration applied."}, "[8]": {"system": "Mite Ova", "assay": "whole plant or invertebrate", "procedure": "The test organism was the egg of the two-spotted mite (Tetranychus urticae (Koch)), as obtained from adults reared on Tendergreen bean plants under controlled conditions of 80±5° F. and 50±5 percent relative humidity. Heavily infested leaves from a stock culture were placed on the primary leaves of two bean plants 6 to 8 inches in height, growing in a 21/2 inch clay pot. Females were allowed to oviposit for a period of 48 hours and then the leaves of the infested plants were dipped in a solution containing 800 parts of tetraethyl pyrophosphate per million parts of water in order to destroy the reproductory forms and thus prevent further egg laying. […] The plants were allowed to dry thoroughly. […] The potted plants (one pot per compound) were placed on a revolving turntable and sprayed with 100-110 milliliters of test compound formulation by use of a DeVilbis spray gun set at 40 psig. air pressure. This application, which lasted 30 seconds, was sufficient to wet the plants to run-off. As a control, 100-110 milliliters of a water solution containing acetone and emulsifier in the same concentrations as the test compound formulation, but containing no test compound, were also sprayed on plants infested with eggs. The sprayed plants were held at 80±5° F. and 50±5 percent relative humidity for 4 days, after which a microscopic examination was made of unhatched (dead) and hatched (living) eggs.\nas §1"}, "[9]": {"system": "adults and nymphal stages of the two-spotted mite", "assay": "Mite Foliage Spray Test", "assay_type": "in vivo, Tetranychus urticae (Koch)", "settings": "4 days", "source_text": "(§3) The test procedures were as follows:\n(§4) Compositions were rated on the basis of percent kill with a rating of 1 indicating no mortality; 3 signifying an approximately 50% mortality and 5 indicating 100% mortality at the indicated dosage."}, "[10]": {"system": "egg forms of the two-spotted mite", "assay": "Fumigant toxicity, Method 2 (treated plants near untreated infested plants)", "assay_type": "in vivo", "settings": "500 ppm dip, 4 days", "procedure": "as §2\nMethod 2: Excised bean plants infested with egg forms of the two-spotted mite were dipped in an aqueous preparation (500 ppm) of the test compound. The treated plants were transferred to 250 ml. Erlenmeyer flasks containing 100 ml. of tap water. Four flasks holding treated plants were evenly spaced around a similar flask in which were placed untreated mite-infested plants so that the leaves of the treated foliage were in close proximity (1-3 inches) to the untreated plants. Four days later mortality determinations were made."}, "[11]": {"system": "Cotton", "assay": "Phytotoxicity, cotton", "settings": "2500 ppm, 10 days", "method": "as §5"}, "[12]": {"system": "egg of the two-spotted mite", "assay": "Mite Ovicide Test", "assay_type": "in vivo, Tetranychus urticae (Koch)", "settings": "spray on eggs, 4 days", "source_text": "as §3\nThe plants were allowed to dry thoroughly.\nas §4"}, "[13]": {"settings": "concentration to kill 95 percent"}}}
{"smiles": "Cc1cc(C)c(C2=C(OC(=O)C(C)(C)C)c3ccccc3C2=O)c(C)c1", "note": "[2-(2',4',6'-Trimethylphenyl)-3-(pivaloyloxy)indone]", "values": [{"measurement": "LC50", "setting": "[1]; Tetranychus urticae, read-out: Mite Adults LD50", "value": 5, "unit": "µg/mL"}, {"measurement": "Mite Adults LD95", "setting": "[1]; [13]", "value": 170, "unit": "ppm"}, {"measurement": "Phytotoxicity Rating, Bean", "setting": "[2]", "value": 1}, {"measurement": "Phytotoxicity Rating, Tomato", "setting": "[3]", "value": 3}, {"measurement": "Herbicide (total preemergence rating)", "setting": "[4]", "value": "32/40"}, {"measurement": "Phytotoxicity Rating, Corn", "setting": "[5]", "value": 3}, {"measurement": "Fumigant Toxicity Method 1", "setting": "[6]", "value": "5 (80-100% control)"}, {"measurement": "Average mite control rating, 1st Reading", "setting": "[7]; Test I, 500 ppm, 4 days, scale 1 (no control) to 5 (complete control)", "value": 4.0}, {"measurement": "Average mite control rating, 2nd Reading", "setting": "[7]; Test I, 500 ppm, 8 days, scale 1 to 5", "value": 3.5}, {"measurement": "Average mite control rating, 1st Reading", "setting": "[7]; Test II, 250 ppm, 3 days, scale 1 to 5", "value": 3.0}, {"measurement": "Average mite control rating, 2nd Reading", "setting": "[7]; Test II, 250 ppm, 7 days, scale 1 to 5", "value": 4.0}, {"measurement": "Average mite control rating, 1st Reading", "setting": "[7]; Test II, 500 ppm, 3 days, scale 1 to 5", "value": 2.3}, {"measurement": "Average mite control rating, 2nd Reading", "setting": "[7]; Test II, 500 ppm, 7 days, scale 1 to 5", "value": 4.7}, {"measurement": "Average mite control rating, 1st Reading", "setting": "[7]; Test III, 125 ppm, 3 days, scale 1 to 5", "value": 1.7}, {"measurement": "Average mite control rating, 2nd Reading", "setting": "[7]; Test III, 125 ppm, 7 days, scale 1 to 5", "value": 2.3}, {"measurement": "Average mite control rating, 3rd Reading", "setting": "[7]; Test III, 125 ppm, scale 1 to 5", "value": 1.7}, {"measurement": "Average mite control rating, 1st Reading", "setting": "[7]; Test III, 250 ppm, 3 days, scale 1 to 5", "value": 3.0}, {"measurement": "Average mite control rating, 2nd Reading", "setting": "[7]; Test III, 250 ppm, 7 days, scale 1 to 5", "value": 4.0}, {"measurement": "Average mite control rating, 3rd Reading", "setting": "[7]; Test III, 250 ppm, scale 1 to 5", "value": 3.7}, {"measurement": "Average mite control rating, 1st Reading", "setting": "[7]; Test III, 500 ppm, 3 days, scale 1 to 5", "value": 3.0}, {"measurement": "Average mite control rating, 2nd Reading", "setting": "[7]; Test III, 500 ppm, 7 days, scale 1 to 5", "value": 4.0}, {"measurement": "Average mite control rating, 3rd Reading", "setting": "[7]; Test III, 500 ppm, scale 1 to 5", "value": 4.5}, {"measurement": "LC50", "setting": "[8]; Tetranychus urticae, read-out: Mite Ova LD50", "value": 3, "unit": "µg/mL"}, {"measurement": "Mite Ova LD95", "setting": "[8]; [13]", "value": 9, "unit": "ppm"}, {"measurement": "Mite Adult rating", "setting": "[9]", "value": "5 (100% mortality)"}, {"measurement": "Fumigant Toxicity Method 2", "setting": "[10]", "value": "5 (80-100% control)"}, {"measurement": "Phytotoxicity Rating, Cotton", "setting": "[11]", "value": 3}, {"measurement": "Mite Ova rating", "setting": "[12]", "value": "5 (100% mortality)"}]}
